Results reported in patent publication US8124365B2, “Identification of genotype-selective anti-tumor agents” (Whitehead Institute for Biomedical Research, priority 2003, dated 2012).

What was measured:
Assay type in all cases: cell-based, human
[1] = test system: BJ-TERT/LT/ST/RAS^V12 cells; test: Calcein AM viability assay, dilution series, BJ-TERT/LT/ST/RAS^V12 tumorigenic cells
Procedure: Described here is work carried out to identify compounds with increased potency or activity in the presence of hTERT, LT, ST, E6, E7 or RAS^V12. […] The primary screen tested (in quadruplicate) the effect of treating tumorigenic […], corresponding to 10 μM for a compound with a molecular weight of 400, which is the approximate median molecular weight of the libraries. […] In live cells, calcein AM is cleaved by intracellular esterases, forming the anionic fluorescent derivative calcein, which cannot diffuse out of live cells. […] The IC50 value (concentration required to inhibit 50% of the calcein AM signal) was calculated for each compound in each cell line (Table 1).
Calcein acetoxylmethyl ester (AM) is a cell membrane-permeable, non-fluorescent compound that is cleaved by intracellular esterases to form the anionic, cell-impermeable, fluorescent compound calcein. Viable cells are stained by calcein because of the presence of intracellular esterases and because the intact plasma membrane prevents fluorescent calcein from leaking out of cells (Wang et al., 1993, supra). Cells were seeded in 384-well plates using a Zymark Sciclone ALH, treated with each […], washed with phosphate-buffered saline on a Packard Minitrak with a 384-well washer and incubated for four hours with 0.7 μg/mL calcein (Molecular Probes). Total fluorescence intensity in each well was recorded on a Packard Fusion platereader, and converted to a percent inhibition of signal by subtracting the instrument background and dividing by the average signal obtained when cells were not treated with any compound.
Compounds to be retested were purchased from manufacturers. Stocks were prepared in DMSO at a concentration of 1 mg/ml in 384-well polypropylene plates with a 16-point, two-fold dilution dose curve of each compound in a column, in duplicates. Column 1-2 and 23-24 were left empty for controls. Daughter retest plates were prepared from stock retest plate by diluting 66.6 fold in DMEM in 384-well deep-deep well plates (4.5 μl transfer into 300 μl). Cells were seeded at a density of 6000 per well in 40 μl, and 20 μl was added from a daughter retest plate. […]
The IC50 in primary BJ cells was divided by the IC50 in BJ-TERT/LT/ST/RAS^V12 tumorigenic cells to obtain a tumor selectivity ratio for each compound. The compound selectivity for each genetic element was determined by calculating the selectivity ratio for each subsequent pair of cell lines in a series.

[2] = test system: BJ-TERT/LT/ST/RAS^V12 cells; test: Nuclear morphology assay; settings: fluorescence microscopy, 9 μM erastin or 1.1 μM camptothecin, 18 hours
Procedure: 200,000 tumorigenic BJ-TERT/LT/ST/RAS^V12 cells were seeded in 2 mL on glass coverslips in each well of a six-well dish, treated with nothing (NT), 9 μM erastin or 1.1 μM camptothecin (CPT) in growth medium for 18 hours while incubating at 37° C. with 5% CO2. Nuclei were stained with 25 μg/mL Hoechst 33342 (Molecular Probes) and viewed using an oil immersion 100× objective on a fluorescence microscope.

caspase 3 = test: Western blot for active, cleaved caspase 3; settings: lysates of treated BJ-TERT/LT/ST/RAS^V12 cells
Procedure: BJ-TERT/LT/ST/RAS^V12 cells were seeded prior to the experiment at 5×10^5 cells in 60 mm dishes. The cells were treated with 5 μg/ml erastin (9 μM) for 2, 4, 6, 8 or 10 hours. One dish was maintained for camptothecin treatment (0.4 μg/ml for 24 h) as a positive control. Cells were lysed after each time point in lysis buffer (50 mM HEPES KOH pH 7.4, […], 2 mM EDTA, 0.5% Triton X-100, 1.5 mM Na3VO4, 50 mM NaF, 10 mM sodium pyrophosphate, 10 mM sodium beta-glycerophosphate and protease inhibitor tablet (Roche)). Protein content was quantified using a Biorad protein assay reagent. Equal amounts of protein were resolved on 16% SDS-polyacrylamide gel. The electrophoresed proteins were transblotted onto a PVDF membrane, blocked with 5% milk and incubated with anti-active caspase-3 polyclonal antibody (BD Pharmingen) at 1:1500 dilution overnight at 4° C. The membrane was then incubated in anti-rabbit-HRP (Santa Cruz Biotechnology) at 1:3000 dilution for 1 hour and developed with an enhanced chemiluminescence mixture (NEN life science, Renaissance). To test for equivalent loading in each lane, blots were stripped, blocked, and probed with an anti-eIF-4E antibody (BD Transduction laboratories) at 1:1000 dilution.

[3] = test system: BJ-TERT/LT/ST/RAS^V12 cells; test: DNA fragmentation (DNA ladder formation)
BJ cells = test: Calcein AM viability assay, dilution series, BJ primary cells; settings: two days
From the text: Described here is work carried out to identify compounds with increased potency or activity in the presence of hTERT, LT, ST, E6, E7 or RAS^V12. Engineered cell lines with these genetic elements were used to screen 23,550 compounds, including 20,000 compounds from a combinatorial library, 1,990 compounds from the National Cancer Institute diversity collection, and 1,540 biologically active known compounds that were selected and purchased by Applicant and formatted into a screenable collection. […] Cell viability was measured using the dye calcein acetoxymethyl ester (calcein AM) (Wang et al., 1993, Hum. Immunol. 37, 264-270), which is a non-fluorescent compound that freely diffuses into cells. […]
Calcein acetoxylmethyl ester (AM) is a cell membrane-permeable, non-fluorescent compound that is cleaved by intracellular esterases to form the anionic, cell-impermeable, fluorescent compound calcein. […] Total fluorescence intensity in each well was recorded on a Packard Fusion platereader, and converted to a percent inhibition of signal by subtracting the instrument background and dividing by the average signal obtained when cells were not treated with any compound. […]
Mean RFU (relative fluorescence units) for untreated cells was calculated by averaging columns 1, 2, and 23 (wells with cells but lacking compounds). […]

SMILES | time required to cause death ([1]; BJ-TERT/LT/ST/RAS^V12 cells) | nuclear morphology (karyorhexis, margination of chromatin) [2] | activated (cleaved) caspase 3 (caspase 3) | DNA fragmentation (formation of a DNA ladder) [3] | IC50, concentration required to achieve 50% inhibition of calcein AM staining, BJ (BJ cells) | IC50, 50% inhibition of calcein AM staining, BJ-TERT/LT/ST/Ras^v12 ([1]; BJ-TERT/LT/ST/Ras^v12 cells, two days) | Tumor Selectivity ([1]; IC50 in primary BJ cells divided by IC50 in BJ-TERT/LT/ST/RAS^V12 tumorigenic cells)
CC[C@@]1(O)C(=O)OCc2c1cc1n(c2=O)Cc2cc3ccccc3nc2-1 [Camptothecin, camptothecin] | two days | karyorhexis and margination of chromatin were clearly visible | harbor activated caspase 3 | induces DNA fragmentation | – | – | –
Cc1c2ccccc2c(CSC(=N)N)c2ccccc12.Cl [NSC146109] | – | – | – | – | >5 µg/mL | 2.5 µg/mL | >4
